Patent publication US20260317314A1, “NITROGEN-CONTAINING HETEROCYCLIC COMPOUND AND USE THEREOF” (JIANGSU DEYUAN PHARMACEUTICAL CO.,LTD., priority 2023, published 2026)

Key:
[1] = In vivo pharmacokinetics study in rats; set-up: species or system SD rat; details: rat, plasma, male SD rats, oral 2 mg/kg
[2] = In vivo pharmacokinetic study in cynomolgus monkeys; set-up: species or system cynomolgus monkey; details: cynomolgus monkey, plasma, male cynomolgus monkeys, oral 1 mg/kg
[3] = Permeability test in MDR1-MDCKII monolayer cell model; assay type: in vitro ADME; details: dog
In short: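 Bidirectional transport of 2 μM compound across 4–7-day MDR1-MDCKII monolayers in HBSS with 10 mM HEPES pH 7.40, DMSO below 1%, 2.5 h at 37 °C. Quantified by LC-MS/MS. Papp calculated from receiver accumulation; efflux ratio = Papp(B-A)/Papp(A-B).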

[4] = Plasma protein binding rate test, cynomolgus monkey (equilibrium dialysis); assay type: in vitro ADME; details: 37° C., read-out: Plasma protein binding rate (%) in cynomolgus monkeys (converted)
Text: (§1) The sample was thoroughly mixed.

[5] = Plasma protein binding rate test, human (equilibrium dialysis); assay type: in vitro ADME; details: 37° C.
Text: as §1

[6] = target: T1, CYP1A2 (Homo sapiens, UniProt P05177); assay: Human liver microsome CYP inhibition assay, CYP1A2; assay type: in vitro ADME; details: role: inhibitor; human liver microsomes, probe substrate; read-out: CYP1A2 half maximal inhibitory concentration IC50
T1 construct: Mixed human liver microsomes (HLM) were purchased from Corning Inc; tissue Corning Inc; host or cells: mixed human liver microsomes (HLM)
T1 sequence (P05177 1-516): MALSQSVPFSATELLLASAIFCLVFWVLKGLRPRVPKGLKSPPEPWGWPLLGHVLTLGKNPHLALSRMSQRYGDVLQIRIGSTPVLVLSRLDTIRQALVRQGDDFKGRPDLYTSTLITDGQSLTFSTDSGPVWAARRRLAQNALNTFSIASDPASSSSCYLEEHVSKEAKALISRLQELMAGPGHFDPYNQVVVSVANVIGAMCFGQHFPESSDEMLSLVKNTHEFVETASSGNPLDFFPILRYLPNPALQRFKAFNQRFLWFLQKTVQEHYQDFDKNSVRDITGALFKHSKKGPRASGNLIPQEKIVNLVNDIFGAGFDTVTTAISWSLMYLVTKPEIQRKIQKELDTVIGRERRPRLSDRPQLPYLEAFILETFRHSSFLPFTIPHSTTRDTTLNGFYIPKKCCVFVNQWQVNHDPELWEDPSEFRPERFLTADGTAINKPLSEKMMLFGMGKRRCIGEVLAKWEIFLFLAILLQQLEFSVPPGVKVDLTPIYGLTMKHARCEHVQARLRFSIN
Description: (§2) Experimental objective: To evaluate the inhibitory activity of the test substance on human liver microsomal cytochrome P450 isoenzymes (CYP1A2, CYP2C9, CYP2C19, CYP2D6, CYP3A4) using a 5-in-1 probe substrate for CYP isoenzymes.
(§3) Mixed human liver microsomes (HLM) were purchased from Corning Inc. (Steuben, New York, USA) and stored at temperatures below −70° C. prior to use.
(§4) The working solution of the test substance, which had been diluted to a series of concentrations, was added to an incubation system containing human liver microsomes, probe substrates, and auxiliary factors of the circulatory system. A control containing solvent but no test substance served as an enzyme activity control (100%). The concentration of metabolites produced from probe substrates in the samples was determined using Liquid Chromatography-Tandem Mass Spectrometry (LC-MS/MS) method. Non-linear regression analysis of the average percentage activity of the test substance against its concentration was conducted using SigmaPlot (V.11). The IC50 values were calculated using a three-parameter or four-parameter inverse log equation.

[7] = target: T2, CYP2C9 (Homo sapiens, UniProt P11712); assay: Human liver microsome CYP inhibition assay, CYP2C9; assay type: in vitro ADME; details: role: inhibitor; human liver microsomes, probe substrate; read-out: CYP2C9 half maximal inhibitory concentration IC50
T2 construct: Mixed human liver microsomes (HLM) were purchased from Corning Inc; tissue Corning Inc; host or cells: mixed human liver microsomes (HLM)
T2 sequence (P11712 whole entry): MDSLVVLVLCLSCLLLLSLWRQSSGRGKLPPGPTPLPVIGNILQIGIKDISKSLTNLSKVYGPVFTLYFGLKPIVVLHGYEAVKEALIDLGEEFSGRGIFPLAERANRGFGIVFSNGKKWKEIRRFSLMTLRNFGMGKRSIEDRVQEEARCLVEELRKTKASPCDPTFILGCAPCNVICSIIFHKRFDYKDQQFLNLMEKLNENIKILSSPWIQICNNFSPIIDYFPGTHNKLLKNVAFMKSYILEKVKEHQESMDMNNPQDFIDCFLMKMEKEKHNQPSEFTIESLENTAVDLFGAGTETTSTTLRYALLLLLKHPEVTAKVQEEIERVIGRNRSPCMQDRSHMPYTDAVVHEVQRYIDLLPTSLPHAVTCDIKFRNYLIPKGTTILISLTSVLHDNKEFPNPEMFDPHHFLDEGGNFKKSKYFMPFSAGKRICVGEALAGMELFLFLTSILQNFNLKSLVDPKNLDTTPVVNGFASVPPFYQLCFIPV
Description: as §2, §3, §4

[8] = target: T3, CYP2C19 (Homo sapiens, UniProt P33261); assay: Human liver microsome CYP inhibition assay, CYP2C19; assay type: in vitro ADME; details: role: inhibitor; human liver microsomes, probe substrate; read-out: CYP2C19 half maximal inhibitory concentration IC50
T3 construct: Mixed human liver microsomes (HLM) were purchased from Corning Inc; tissue Corning Inc; host or cells: mixed human liver microsomes (HLM)
T3 sequence (P33261 whole entry): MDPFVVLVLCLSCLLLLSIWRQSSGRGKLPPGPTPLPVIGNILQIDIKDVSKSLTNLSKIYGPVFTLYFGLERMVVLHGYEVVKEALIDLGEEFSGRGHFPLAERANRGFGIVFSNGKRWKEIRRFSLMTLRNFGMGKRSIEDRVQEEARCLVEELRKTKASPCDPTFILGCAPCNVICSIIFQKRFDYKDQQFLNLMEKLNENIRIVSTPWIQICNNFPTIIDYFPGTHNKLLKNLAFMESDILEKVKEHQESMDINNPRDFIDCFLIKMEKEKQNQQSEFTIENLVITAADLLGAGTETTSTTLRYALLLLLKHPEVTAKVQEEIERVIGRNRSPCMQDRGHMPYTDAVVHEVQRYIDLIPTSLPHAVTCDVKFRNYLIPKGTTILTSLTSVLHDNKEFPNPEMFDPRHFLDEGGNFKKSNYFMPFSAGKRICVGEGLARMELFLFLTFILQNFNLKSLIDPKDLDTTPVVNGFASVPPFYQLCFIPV
Description: as §2, §3, §4

[9] = target: T4, CYP2D6 (Homo sapiens, UniProt P10635); assay: Human liver microsome CYP inhibition assay, CYP2D6; assay type: in vitro ADME; details: role: inhibitor; human liver microsomes, probe substrate; read-out: CYP2D6 half maximal inhibitory concentration IC50
T4 construct: Mixed human liver microsomes (HLM) were purchased from Corning Inc; tissue Corning Inc; host or cells: mixed human liver microsomes (HLM)
T4 sequence (P10635 whole entry): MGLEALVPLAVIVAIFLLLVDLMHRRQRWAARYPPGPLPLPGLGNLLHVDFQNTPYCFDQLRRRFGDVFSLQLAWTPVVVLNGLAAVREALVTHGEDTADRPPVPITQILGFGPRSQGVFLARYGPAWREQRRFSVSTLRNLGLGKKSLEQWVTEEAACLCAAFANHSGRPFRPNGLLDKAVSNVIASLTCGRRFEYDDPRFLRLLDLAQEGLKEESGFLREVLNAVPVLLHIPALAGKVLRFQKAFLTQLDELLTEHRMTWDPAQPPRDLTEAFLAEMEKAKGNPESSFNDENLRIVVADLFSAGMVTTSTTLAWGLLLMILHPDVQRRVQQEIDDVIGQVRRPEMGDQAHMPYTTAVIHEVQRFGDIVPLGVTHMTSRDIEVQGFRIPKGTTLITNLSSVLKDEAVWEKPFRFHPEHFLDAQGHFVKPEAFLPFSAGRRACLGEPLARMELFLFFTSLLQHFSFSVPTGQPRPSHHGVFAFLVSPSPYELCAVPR
Description: as §2, §3, §4

[10] = target: T5, CYP3A4 (Homo sapiens, UniProt P08684); assay: Human liver microsome CYP inhibition assay, CYP3A4; assay type: in vitro ADME; details: role: inhibitor; human liver microsomes, probe substrate; read-out: CYP3A4 half maximal inhibitory concentration IC50
T5 construct: Mixed human liver microsomes (HLM) were purchased from Corning Inc; tissue Corning Inc; host or cells: mixed human liver microsomes (HLM)
T5 sequence (P08684 whole entry): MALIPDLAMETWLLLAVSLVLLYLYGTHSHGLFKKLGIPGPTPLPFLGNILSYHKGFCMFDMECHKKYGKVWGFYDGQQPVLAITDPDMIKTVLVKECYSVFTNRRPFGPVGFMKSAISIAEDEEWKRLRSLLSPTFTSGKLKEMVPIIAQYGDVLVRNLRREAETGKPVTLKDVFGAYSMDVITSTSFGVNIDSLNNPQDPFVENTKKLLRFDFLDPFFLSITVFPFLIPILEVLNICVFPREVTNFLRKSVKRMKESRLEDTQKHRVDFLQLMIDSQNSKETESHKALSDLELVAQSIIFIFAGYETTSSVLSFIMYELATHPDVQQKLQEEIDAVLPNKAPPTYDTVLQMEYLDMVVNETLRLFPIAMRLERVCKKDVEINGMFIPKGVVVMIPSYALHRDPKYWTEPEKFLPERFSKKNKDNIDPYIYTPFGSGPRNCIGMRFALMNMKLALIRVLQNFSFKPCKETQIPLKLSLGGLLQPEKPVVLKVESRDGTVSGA
Description: as §2, §3, §4

Structure (SMILES): CCC(=O)N[C@H]1CCOc2c(-c3ccc4c(c3)CCC(=O)N4C)cncc21 (single isomer, unassigned) [Compound 037]
- bioavailability [1]: 157%
- half-life [1]: 2.36 h
- Cmax [1]: 8.29 µM
- AUC(0-t) at 24 h ([1]; read-out: AUC0-24 h): 49.9 µM·h
- bioavailability [2]: 67%
- half-life [2]: 5.75 h
- Cmax [2]: 1.32 µM
- AUC(0-t) at 24 h ([2]; read-out: AUC0-24 h): 10 µM·h
- efflux ratio at 2.5 h, 2 µM ([3]; MDCK-MDR1, pH 7.4, ER=Papp(BA)/Papp(AB)): 1.88
- Papp A→B at 2.5 h, 2 µM ([3]; MDCK-MDR1, pH 7.4, pH 7.40, 2.5 hours, 37±1° C., read-out: Apparent permeability coefficient (Papp (AB))): 10.7 ×10⁻⁶ cm/s
- fraction unbound at 4 h [4]: 0.451
- fraction unbound at 4 h [5]: 0.354
- IC50 [6]: > 50 µM
- IC50 [7]: > 50 µM
- IC50 [8]: > 50 µM
- IC50 [9]: > 50 µM
- IC50 [10]: > 50 µM
